Assays:
[1] = test system: KM12; assay: cells; assay type: cell-based; settings: KM12 (Colon Cancer)
[2] = test system: OVCAR-5; assay: cells; assay type: cell-based; settings: OVCAR-5 (Ovarian Cancer)
[3] = test system: DU-145; assay: cells; assay type: cell-based; settings: DU-145 (Prostate Cancer)
[4] = test system: ACHN; assay: cells; assay type: cell-based; settings: ACHN (Renal Cancer)
[5] = test system: HCT-15; assay: cells; assay type: cell-based; settings: HCT-15 (Colon Cancer)
[6] = test system: NCI/ADR-RES; assay: cells; assay type: cell-based; settings: NCI/ADR-RES (Ovarian Cancer)
[7] = test system: A549/ATCC; assay: cells; assay type: cell-based; settings: A549/ATCC (NSCLC)
[8] = test system: MALME-3M; assay: cells; assay type: cell-based; settings: MALME-3M (Melanoma)
[9] = test system: SK-MEL-5; assay: cells; assay type: cell-based; settings: SK-MEL-5 (Melanoma)
[10] = test system: SN12C; assay: cells; assay type: cell-based; settings: SN12C (Renal Cancer)
[11] = test system: SK-MEL-28; assay: cells; assay type: cell-based; settings: SK-MEL-28 (Melanoma)
[12] = test system: NCI-H322M; assay: cells; assay type: cell-based; settings: NCI-H322M (NSCLC)
[13] = test system: U251; assay: cells; assay type: cell-based; settings: U251 (CNS Cancer)
[14] = target: PYK2 (Homo sapiens, UniProt Q14289); assay: In vitro kinase inhibition, Ambit Biosciences panel; assay type: binding; parameters: purchased Ambit Biosciences; settings: lower numbers indicate stronger activities
Chain of PYK2 (Q14289 whole entry): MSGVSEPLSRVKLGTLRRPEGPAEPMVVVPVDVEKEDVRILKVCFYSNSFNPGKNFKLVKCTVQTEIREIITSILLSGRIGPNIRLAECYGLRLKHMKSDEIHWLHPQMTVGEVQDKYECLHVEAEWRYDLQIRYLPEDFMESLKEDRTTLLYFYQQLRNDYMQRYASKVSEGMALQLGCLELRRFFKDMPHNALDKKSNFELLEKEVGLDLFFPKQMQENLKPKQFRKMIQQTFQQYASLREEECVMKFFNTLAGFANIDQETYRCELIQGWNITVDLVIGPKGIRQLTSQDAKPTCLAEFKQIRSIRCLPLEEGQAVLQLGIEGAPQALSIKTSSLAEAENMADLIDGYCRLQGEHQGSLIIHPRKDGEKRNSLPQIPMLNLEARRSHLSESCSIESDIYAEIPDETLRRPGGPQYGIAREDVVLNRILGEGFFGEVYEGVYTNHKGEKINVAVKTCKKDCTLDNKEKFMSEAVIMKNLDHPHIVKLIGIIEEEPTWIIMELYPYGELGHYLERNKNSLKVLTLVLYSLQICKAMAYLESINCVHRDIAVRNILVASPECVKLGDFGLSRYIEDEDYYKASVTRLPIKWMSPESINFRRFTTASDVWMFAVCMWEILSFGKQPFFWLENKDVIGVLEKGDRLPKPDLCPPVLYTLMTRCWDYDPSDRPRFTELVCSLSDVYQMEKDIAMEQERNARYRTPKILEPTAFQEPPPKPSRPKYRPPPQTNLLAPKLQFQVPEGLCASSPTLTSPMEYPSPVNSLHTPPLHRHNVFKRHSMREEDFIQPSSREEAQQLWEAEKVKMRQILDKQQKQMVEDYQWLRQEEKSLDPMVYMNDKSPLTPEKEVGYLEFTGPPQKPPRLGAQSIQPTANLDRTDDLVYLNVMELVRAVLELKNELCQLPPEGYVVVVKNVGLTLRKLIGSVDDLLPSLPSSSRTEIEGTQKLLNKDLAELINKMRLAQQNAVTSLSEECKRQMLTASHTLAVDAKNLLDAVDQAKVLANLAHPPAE
Method: (§1) Up to 518 different kinases have been identified in humans. They act on small molecules such as lipids, carbohydrates, amino acids, and nucleotides. To determine the scope of inhibitory effects of a representative compound of Formula (I) on known kinases, Compound 6 was tested against 104 commercially available kinases (Ambit Biosciences™) in vitro. 104 kinases included ABL1(E255K)-phosphorylated, ABL1(T315I)-phosphorylated, ABL1-phosphorylated, ACVR1B, ADCK3, AKT1, AKT2, ALK, AURKA, AURKB, AXL, BMPR2, BRAF, BRAF(V600E), BTK, CDK11, CDK2, CDK3, CDK7, CDK9, CHEK1, CSF1R, CSNK1D, CSNK1G2, DCAMKL1, DYRK1B, EGFR, EGFR(L858R), EPHA2, ERBB2, ERBB4, ERK1, FAK, FGFR2, FGFR3, FLT1, FLT3, FLT4, GSK3B, IGF1R, IKK-α, IKK-β, INSR, JAK2(JH1domain-catalytic), JAK3(JH1domain-catalytic), JNK1, JNK2, JNK3, KIT, KIT(D816V), KIT(V559D,T670I), LKB1, LRRK2, LRRK2(G2019S), MAP3K4, MAPKAPK2, MARK3, MEK1, MEK2, MET, MKNK1, MKNK2, MLK1, MTOR, p38-alpha, p38-beta, PAK1, PAK2, PAK4, PCTK1, PDGFRA, PDGFRB, PDPK1, PIK3C2B, PIK3CA, PIK3CG, PIM1, PIM2, PIM3, PKAC-alpha, PLK1, PLK3, PLK4, PRKCE, PYK2, RAFT, RET, RIOK2, ROCK2, RSK2, SNARK, SRC, SRPK3, SYK, TAK1, TGFBR1, TIE2, TRKA, TSSK1B, TYK2(JH1domain-catalytic), ULK2, VEGFR2, YANK3 and ZAP70.
(§2) Inhibition activity of Compound 6 was reported as percent control where lower numbers indicate stronger activities. […]

[15] = target: SYK (Homo sapiens, UniProt P43405); assay: as above; assay type: binding; parameters: purchased Ambit Biosciences; settings: lower numbers indicate stronger activities
Method: as §1, §2

[16] = test system: OVCAR-3; assay: cells; assay type: cell-based; settings: OVCAR-3 (Ovarian Cancer)
[17] = test system: SNB-75; assay: cells; assay type: cell-based; settings: SNB-75 (CNS Cancer)
[18] = test system: SK-OV-3; assay: cells; assay type: cell-based; settings: SK-OV-3 (Ovarian Cancer)
[19] = Homo sapiens, read-out: LC50 (the source's name)

Work on `O=c1[nH]ccc2nc(N3CCC(O)CC3)nc(Nc3cccc(C(F)(F)F)c3)c12` [Compound 6, 2-(4-hydroxypiperidin-1-yl)-4-(3-(trifluoromethyl)phenylamino)pyrido[4,3-d]pyrimidine-5(6H)-one] yielded a GI50 ([1]; Homo sapiens) of 1.45 µM, an IC50 ([1]; Homo sapiens) of 2.69 µM and a CC50 [1, 19] of 24 µM. The TGI [1] was 5.37 µM, the GI50 ([2]; Homo sapiens) was 28.2 µM and the IC50 ([2]; Homo sapiens) was 74.1 µM. The CC50 [2, 19] was 100 µM, the TGI [2] was 93.3 µM and the TGI [3] was 19.5 µM. For the same molecule, the GI50 ([3]; Homo sapiens) was 1.55 µM, the IC50 ([3]; Homo sapiens) was 6.03 µM and the CC50 [3, 19] was 100 µM. The TGI [4] was 85.1 µM, the GI50 ([4]; Homo sapiens) was 0.708 µM and the IC50 ([4]; Homo sapiens) was 2.24 µM. The CC50 [4, 19] was 100 µM, the TGI [5] was 31.6 µM and the GI50 ([5]; Homo sapiens) was 0.537 µM. It also gave an IC50 ([5]; Homo sapiens) of 0.759 µM, a CC50 [5, 19] of 100 µM and a GI50 ([6]; Homo sapiens) of 2.34 µM. It also gave an IC50 ([6]; Homo sapiens) of 4.37 µM, a CC50 [6, 19] of 100 µM and a TGI [6] of 7.41 µM. The TGI [7] was 100 µM, the GI50 ([7]; Homo sapiens) was 3.8 µM and the IC50 ([7]; Homo sapiens) was 6.31 µM. It also gave a CC50 [7, 19] of 100 µM, a GI50 ([8]; Homo sapiens) of 2.63 µM and an IC50 ([8]; Homo sapiens) of 9.77 µM. The CC50 [8, 19] was 32.4 µM, the TGI [8] was 7.94 µM and the GI50 ([9]; Homo sapiens) was 1.23 µM. The IC50 ([9]; Homo sapiens) was 2.14 µM, the CC50 [9, 19] was 5.13 µM and the TGI [9] was 2.51 µM. The GI50 ([10]; Homo sapiens) was 4.07 µM, the IC50 ([10]; Homo sapiens) was 12.9 µM and the CC50 [10, 19] was 100 µM. For the same molecule, the TGI [10] was 100 µM, the GI50 ([11]; Homo sapiens) was 4.68 µM and the IC50 ([11]; Homo sapiens) was 11 µM. For the same molecule, the CC50 [11, 19] was 50.1 µM, the TGI [11] was 17.4 µM and the GI50 ([12]; Homo sapiens) was 2.29 µM. The IC50 ([12]; Homo sapiens) was 21.4 µM, the CC50 [12, 19] was 100 µM and the TGI [12] was 28.8 µM. For the same molecule, the GI50 ([13]; Homo sapiens, U-251) was 6.17 µM, the IC50 ([13]; Homo sapiens, U-251) was 11.7 µM and the CC50 ([13]; Homo sapiens, U-251, read-out: LC50 (the source's name)) was 100 µM. The TGI [13] was 100 µM, the “% inhibition (reported as percent control)” value [14] was 32% and the “% inhibition (reported as percent control)” value [15] was 8.4%. The GI50 ([16]; Homo sapiens) was 1.35 µM, the IC50 ([16]; Homo sapiens) was 3.63 µM and the CC50 [16, 19] was 46.8 µM. It also gave a TGI [16] of 3.98 µM, a GI50 ([17]; Homo sapiens) of 5.75 µM and an IC50 ([17]; Homo sapiens) of 77.6 µM. It also gave a CC50 [17, 19] of 100 µM, a TGI [17] of 81.3 µM and a GI50 ([18]; Homo sapiens) of 0.49 µM. The IC50 ([18]; Homo sapiens) was 20 µM, the CC50 [18, 19] was 100 µM and the TGI [18] was 100 µM.
